Results: patent EP4818174A1, “ERIBULIN DERIVATIVE AND ANTIBODY-DRUG CONJUGATE THEREOF, AND MEDICAL USE THEREOF” ([…] CO., LTD., priority 2024, dated 2025)
Structures can show the parent of a compound that is named as a salt. Where two headings read alike, the source gives them in different places.

Experiments:
Assay in all cases: Inhibitory activity on other cancer cell lines (similar method)
Format in all cases: cell-based
[1] = system: HCC1937; conditions: Homo sapiens
Protocol: (§1) On the day of the test, the cells were digested with 0.25% trypsin (Gibco, 25200-072), filtered with a sieve with a pore size of 40 µm, diluted with the corresponding medium until a cell density reached 1 × 10^4 cells/mL, and inoculated onto a 96-well white cell culture plate (Beyotime, FCP968), 100 µL of cells were added per well, the culture plate was put in a 37°C incubator (Thermo 311) containing 5% CO2, and the cells were further incubated for 24 hours. On Day 2, to-be-tested samples were prepared into a stock solution at a final concentration of […] with DMSO (Sigma, D1650), then diluted with the corresponding medium until a final concentration reached 200 nM, and then subjected to four-fold serial dilutions, to prepare solutions at a total of 9 concentrations. 100 µL of the diluted sample was added to a 96-well plate, the plate was put in a 37°C incubator containing 5% CO2, and the cells were further incubated for 144 hours. The cell culture plate was removed, 100 µL of cell viability assay agent (CellTiter-Glo® Luminescent Cell Viability Assay, Promega, G7571) was added to each well, and the reaction solution allowed to react in the dark for 5 minutes at room temperature. Luminescence values were read by a microplate reader (TECAN SPARK) and data were processed with Graphpad Prism 7 software.
(§2) Table 2: Inhibitory IC50 Values of Compounds PE-21EK and PE-AM4 in the Present Invention Against Other Cancer Cell Lines

[2] = system: DU145; conditions: Homo sapiens
Protocol: as §1, §2

[3] = system: SW620; conditions: Homo sapiens
Protocol: as §1, §2

[4] = system: Renal cancer; conditions: read-out: Inhibitory IC50 values
Protocol: as §1, §2

[5] = system: MDAMB231; conditions: Homo sapiens
Protocol: as §1, §2

[6] = system: 22Rv1; conditions: Homo sapiens
Protocol: as §1, §2

[7] = system: Lncap cell; conditions: Homo sapiens, read-out: Inhibitory IC50 values
Protocol: as §1, §2

[8] = system: H1975; conditions: Homo sapiens
Protocol: as §1, §2

[9] = system: IGROV-1; conditions: Homo sapiens
Protocol: as §1, §2

[10] = system: MIA PaCa-2; conditions: Homo sapiens
Protocol: as §1, §2

[11] = system: MDA-MB-453; conditions: Homo sapiens
Protocol: as §1, §2

[12] = system: NCI-H1650; conditions: Homo sapiens
Protocol: as §1, §2

[13] = system: HS578T; conditions: Homo sapiens, Hs-578T, read-out: Inhibitory IC50 values
Protocol: as §1, §2

[14] = system: A549; conditions: Homo sapiens
Protocol: as §1, §2

[15] = system: NSCLC; conditions: read-out: Inhibitory IC50 values
Protocol: as §1, §2

[16] = HCC1937, cell source Breast cancer, unit inferred, read-out: Inhibitory IC50 values
[17] = DU-145, DU145, cell source Prostate cancer, unit inferred, read-out: Inhibitory IC50 values
[18] = SW-620, SW620, cell source Colon cancer, unit inferred, read-out: Inhibitory IC50 values
[19] = MDA-MB-231, MDAMB231, cell source Breast cancer, unit inferred, read-out: Inhibitory IC50 values
[20] = 22Rv1, cell source Prostate cancer, unit inferred, read-out: Inhibitory IC50 values
[21] = Lncap cell, cell source Prostate cancer, unit inferred
[22] = NCI-H1975, H1975, cell source NSCLC, unit inferred, read-out: Inhibitory IC50 values
[23] = IGROV-1, cell source Ovarian cancer, unit inferred, read-out: Inhibitory IC50 values
[24] = MIA PaCa-2, cell source Pancreatic cancer, unit inferred, read-out: Inhibitory IC50 values
[25] = MDA-MB-453, cell source Breast cancer, unit inferred, read-out: Inhibitory IC50 values
[26] = NCI-H1650, cell source NSCLC, unit inferred, read-out: Inhibitory IC50 values
[27] = HS578T, cell source Breast cancer, unit inferred
[28] = A549, cell source NSCLC, unit inferred, read-out: Inhibitory IC50 values

Row | Structure (SMILES) | IC50 [1, 16] | IC50 [2, 17] | IC50 [3, 18] | IC50 [4] | IC50 [5, 19] | IC50 [6, 20] | IC50 [7, 21] | IC50 [8, 22] | IC50 [9, 23] | IC50 [10, 24] | IC50 [11, 25] | IC50 [12, 26] | IC50 [13, 27] | IC50 [14, 28] | IC50 [15] | other results
1 | C=C1C[C@@H]2CC[C@@]34C[C@H]5O[C@H]6[C@@H](O3)[C@H]3O[C@H](CC[C@@H]3O[C@H]6[C@H]5O4)CC(=O)C[C@@H]3[C@@H](OC)[C@@H](CC(=O)CNC(=O)OCCCCCO)O[C@H]3C[C@H]3O[C@@H](CC[C@@H]1O2)C[C@@H](C)C3=C [PE-21EK] | 0.104 nM | 0.501 nM | 0.0221 nM | 0.102 nM | 0.218 nM | 0.125 nM | 0.123 nM | 0.0708 nM | 0.289 nM | 0.158 nM | 0.0846 nM | 0.262 nM | 0.0207 nM | 0.194 nM | 0.184 nM | 
2 | C=C1C[C@@H]2CC[C@@]34C[C@H]5O[C@H]6[C@@H](O3)[C@H]3O[C@H](CC[C@@H]3O[C@H]6[C@H]5O4)CC(=O)C[C@@H]3[C@@H](OC)[C@@H](CC(=O)N4CC(CO)C4)O[C@H]3C[C@H]3O[C@@H](CC[C@@H]1O2)C[C@@H](C)C3=C [PE-AM4] | 0.647 nM | 0.686 nM | 1.3 nM | 3.47 nM | 1.08 nM | 0.741 nM | 0.457 nM | 0.728 nM | 0.623 nM | 1.23 nM | 0.151 nM | 1.56 nM | 0.276 nM | 4.92 nM | 3.13 nM | 
3 | C=C1C[C@@H]2CC[C@@]34C[C@H]5O[C@H]6[C@@H](O3)[C@H]3O[C@H](CC[C@@H]3O[C@H]6[C@H]5O4)CC(=O)C[C@@H]3[C@@H](OC)[C@@H](C[C@H](O)CN)O[C@H]3C[C@H]3O[C@@H](CC[C@@H]1O2)C[C@@H](C)C3=C [PE-E, eribulin mesylate, reference compound] |  |  |  | 0.755 nM |  |  |  |  |  |  |  |  |  |  | 0.649 nM | IC50 ([1]; HCC1937, read-out: Inhibitory IC50 values): 2.85 nM; IC50 ([2]; DU-145, read-out: Inhibitory IC50 values): 1.68 nM; IC50 ([3]; SW-620, read-out: Inhibitory IC50 values): 0.419 nM; IC50 ([5]; MDA-MB-231, read-out: Inhibitory IC50 values): 0.805 nM; IC50 ([6]; 22Rv1, read-out: Inhibitory IC50 values): 0.618 nM; IC50 ([7]; LNCaP): 1.3 nM; IC50 ([8]; NCI-H1975, read-out: Inhibitory IC50 values): 0.505 nM; IC50 ([9]; IGROV-1, read-out: Inhibitory IC50 values): 0.439 nM; IC50 ([10]; MIA PaCa-2, read-out: Inhibitory IC50 values): 0.668 nM; IC50 ([11]; MDA-MB-453, read-out: Inhibitory IC50 values): 19.3 nM; IC50 ([12]; NCI-H1650, read-out: Inhibitory IC50 values): 2.35 nM; IC50 [13]: 0.188 nM; IC50 ([14]; A549, read-out: Inhibitory IC50 values): 4.17 nM
